# Measured values taken from US20120270770A1, “Anti-angiogenic peptides and their uses” (priority 2010, published 2012).
# Columns and labels:
# [1] = system: angiogenesis in Matrigel deposits imbibed with fibroblast growth factor 1 (FGF1); experiment: Matrigel deposit angiogenesis assay (FGF1-loaded Matrigel implanted in mice, histology score); assay type: in vivo
# Description: Matrigel deposits were surgically implanted on both sides of 4 mice per treatment yielding a possible 8 samples per treatment. Matrigel is a polymeric substance that appears to be relatively inert in animals and it can serve as a matrix that allows experimentation in vivo on many different difficult-to-study-processes. Prior to implantation, the Matrigel was allowed to imbibe fibroblast growth factor 1 (FGF1). This protein is a powerful inducer of angiogenesis and its presence guarantees that sufficient activity will be observed within the allotted time period of the experiment. Therefore, any inhibition of angiogenesis is likely to be a real phenomenon as the experiment has been set to heavily favor the angiogenic process. Angiogenesis occurs by day 14 and beginning Day 1 (Day 0=day of implantation), mice were injected IP daily with 20 μg of peptide in 100 μl of normal saline. The animals were sacrificed on Day 14, and each Matrigel deposit divided longitudinally and fixed in 10% buffered formalin. One of the halves of each Matrigel deposit was then sectioned. Read-out for this experiment was via histology, with semi-quantitative/qualitative counting of migration of cells and their subsequent assembly of lumenal structures within the Matrigel. This method allows us to observe the full physiologic spectrum of effects, and was useful in delineating trends. […] In FIG. 13, A represents what a section of a Matrigel gel deposit looks like under the microscope soon after surgical implantation. The sample in B is derived from the control at the conclusion of the experiment. Intense activity is present with numerous cells attaching to the surface of the Matrigel. Cells begin to penetrate the deposit and organize into discrete structures that coalesce to form the beginning of tubes twisting and branching in many directions. These venules eventually connect with the system carrying blood and it is possible to see red cells and lymphocytes within them. This process is called “arborization”, derived from the fact that the angiogenic process most closely resembles the growth of roots and branches of trees. All but two of the peptide treatments looked, more or less, like B (all the peptides of Table 1 were tested). In C, a typical sample from the peptide C-1 treatment is shown. […] Consequently, there were far fewer cells and cellular structures inside of the Matrigel. […] There were large regions of Matrigel that had no visibly associated structures and few single cells, including on the periphery, while other regions had some limited activity.
# This system ranks each sample using a 0 to 4 plus (+) scale. Thus, B in FIG. 13 would yield a score of +++ while no + sign would yield a value of 0, as in A in FIG. 13. In Table 3 the data is modified to a numerical form and plotted averages are shown.
# [2] = system: Stage IV pancreatic cancer; experiment: Treatment of a patient with Stage IV pancreatic cancer; assay type: in vivo, human; conditions: one patient
# Method: A diabetic since 12/01 was diagnosed with Stage IV pancreatic cancer in May 2002 with metastatic diseases in their liver. Median survival time of patients with Stage IV pancreatic cancer is 4.5 months. Median survival time of patients with Stage IV pancreatic cancer when treated with gemcitabine is 4.8 months. The longest anyone lived on gemcitabine treatment has been 19 months.
# The patient of this case started JC15-10N peptide treatment on August 2002. The patient was given 0.5 mg/kg peptide sub-cutaneously. The patient weighted 128 lbs. and therefore they received 29 mg/injection per week. […] After receiving the peptide for more than 19 months, the patient was doing fine. The patient passed away from unrelated causes on July 2004.
# [3] = 0 to 4 plus scale, 20 μg peptide IP daily, Day 14 histology
sequence,measurement,setting,value
FAKKFAKKFK [JC15-10N],"angiogenic activity score, Sample 1",[1]; [3],1
same,"angiogenic activity score, Sample 2",[1]; [3],2
same,"angiogenic activity score, Sample 3",[1]; [3],2
same,"angiogenic activity score, Sample 4",[1]; [3],3
same,"angiogenic activity score, Sample 5",[1]; [3],1
same,"angiogenic activity score, Sample 6",[1]; [3],2
same,"angiogenic activity score, Sample 7",[1]; [3],2
same,% Diff.,[1]; difference of mean score from control (2.50),−25.71%
same,angiogenic / anti-angiogenic activity in Matrigel deposit (in words),"[1]; histology, 20 μg peptide IP daily, Day 14",possesses anti-angiogenic activity
same,"angiogenic activity score, Mean","[1]; mean of samples, control mean 2.50",1.86
same,need for diabetic medication (indicating primary tumor regressing),[2]; 0.5 mg/kg sub-cutaneously per week,required no more diabetic medication
same,metastatic disease in the liver,"[2]; 0.5 mg/kg sub-cutaneously, 29 mg/injection per week",diminished significantly
same,time on peptide with the patient doing fine,"[2]; Stage IV pancreatic cancer, 0.5 mg/kg sub-cutaneously per week",more than 19 months
